# PubChem BioAssay AID2202554 (NIEHS Division of Translational Toxicology (DTT))
# Records with an inconclusive call do not appear. Active and inactive are the calls of the source. The rule behind the calls is not given here.
# Tested on: S. typhimurium/E. coli reverse mutation, colony counts
# Experiment: Bacterial reverse mutation test (aka Ames test) summary data
# Procedure, shortened: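 Revertant colony counts on plates, compared with untreated controls, after about two days of growth. Exposure with or without liver S9 (rat/hamster/mouse), dose range per strain, 20-min 37° C preincubation or direct plate incorporation. Strains: his⁻ Salmonella, trp⁻ E. coli WP2 uvrA pKM101.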
row,SMILES,outcome
1,CCCCCCc1ccc(-c2ccc(C#N)cc2)cc1,inactive; negative
2,C[N+](C)(C)Cc1ccccc1,inactive; negative
3,CC(C)(C)C(=O)C1C(=O)c2ccccc2C1=O,inactive; negative
4,Oc1ccc(C(c2ccc(O)cc2)(C(F)(F)F)C(F)(F)F)cc1,inactive; negative
5,Clc1c(Cl)c(Br)c2c(c1Cl)-c1nc-2nc2[n-]c(nc3nc(nc4[n-]c(n1)c1c(Cl)c(Br)c(Cl)c(Br)c41)-c1c(Cl)c(Cl)c(Br)c(Cl)c1-3)c1c(Br)c(Cl)c(Br)c(Cl)c21.[Cu+2],active; positive
6,NC(=O)CCCCC(N)=O,inactive; negative
7,C[C@H](Cn1cnc2c(N)ncnc21)OCP(=O)(O)O,active; positive
8,O=C1OC2(c3cc(Br)c(O)c(Br)c3Oc3c2cc(Br)c(O)c3Br)c2c(Cl)c(Cl)c(Cl)c(Cl)c21,active; positive
9,CC[C@H]1OC(=O)[C@H](C)[C@@H](O[C@H]2C[C@@](C)(OC)[C@@H](O)[C@H](C)O2)[C@H](C)[C@@H](O[C@@H]2O[C@H](C)C[C@H](N(C)C)[C@H]2O)[C@](C)(OC)C[C@@H](C)C(=O)[C@H](C)[C@@H](O)[C@]1(C)O,inactive; negative
10,O=Cc1ccccc1Cl,inactive; negative
11,COc1cc(C=O)ccc1O,inactive; negative
12,Cc1c(N)cccc1Cl,inactive; negative
13,Cc1ccc2c(ccc3ccccc32)c1,active; positive
14,[Li+],inactive; negative
15,CC1CCCO1 (configuration not stated),inactive; negative
16,CC(C)N,inactive; negative
17,Nc1cc([N+](=O)[O-])cc(S(=O)(=O)O)c1O,inactive; negative
18,c1ccc2ncccc2c1,active; positive
19,CC(O)COc1ccccc1 (configuration not stated),inactive; negative
20,N=C1C=CC(=C(c2ccc(N)cc2)c2ccc(N)cc2)C=C1,active; positive
21,O=C(O)C(Cl)(Cl)Br,active; positive
22,Cc1c(O)cccc1O,inactive; negative
23,C[C@]12CC[C@@H]3c4ccc(O)cc4CC[C@H]3[C@@H]1CC[C@@H]2O,inactive; negative
24,Cc1cc(-c2ccc(N=Nc3ccc4c(S(=O)(=O)O)cc(S(=O)(=O)O)c(N)c4c3O)c(C)c2)ccc1N=Nc1ccc2c(S(=O)(=O)O)cc(S(=O)(=O)O)c(N)c2c1O,active; positive

row,SMILES,outcome
1,C[C@]12CCC(=O)C=C1CC[C@@H]1[C@@H]2CC[C@]2(C)C(=O)CC[C@@H]12,inactive; negative
2,CC(=O)OC(C(=O)c1ccccc1)c1ccccc1 (configuration not stated),inactive; negative
3,CCCCCCCCCCCCCCCCCC(O)=[OH+].O.[Cl][Cr][Cl].[Cl][Cr][Cl],active; positive
4,CCCC(=O)c1cc(O)c(O)cc1O,active; positive
5,CC(C)C(C)(C)C(C)(C)C(C)(C)S,inactive; negative
6,CC(CN1c2ccccc2Sc2ccccc21)N(C)C (configuration not stated),inactive; negative
7,CC[C@H](C)COC(=O)C=Cc1ccc(N=Cc2ccc(OC)cc2)cc1,active; positive
8,O=S(=O)(O)c1ccc(N=Nc2cc(S(=O)(=O)O)c3ccccc3c2O)c2ccccc12,inactive; negative
9,O=[N+]([O-])c1cc([N+](=O)[O-])c2ccc(S(=O)(=O)O)cc2c1O,active; positive
10,Cc1c(Br)c(Br)c(Br)c(Br)c1Br,inactive; negative
11,Nc1ccccc1C(=O)OCCc1ccccc1,inactive; negative
12,OCCOCCO,inactive; negative
13,BrC(Br)C(Br)Br,inactive; negative
14,ClC(Cl)(Cl)CC1CO1 (configuration not stated),active; positive
15,N#CCCCl,active; positive
16,CC(O)CNCC(C)O (configuration not stated),inactive; negative
17,CCN(C=O)CC,inactive; negative
18,Cc1ccc2cccnc2c1,active; positive
19,CCC[N+](CCC)(CCC)CCC,active; weakly positive
20,CCCBr,inactive; negative
21,Cc1ccccc1Br,inactive; negative
22,NC1CCC(CC2CCC(N)CC2)CC1 (configuration not stated),inactive; negative
23,Cc1ccc([N+](=O)[O-])cc1C,active; positive
24,Oc1cccc(Nc2ccccc2)c1,inactive; negative

row,SMILES,outcome
1,CC(Cl)CCl (configuration not stated),active; weakly positive
2,O=c1n(CC2CO2)c(=O)n(CC2CO2)c(=O)n1CC1CO1 (configuration not stated),active; positive
3,O=NN1CCOCC1,active; positive
4,CNC(C)Cc1ccccc1 (configuration not stated),inactive; negative
5,Nc1ccc2c(c1)C(=O)c1ccccc1C2=O,active; positive
6,CC(Cl)(Cl)Cl,inactive; negative
7,O=C(O)C1C(C(=O)O)C2(Cl)C(Cl)=C(Cl)C1(Cl)C2(Cl)Cl (configuration not stated),inactive; negative
8,CC(=O)Oc1ccccc1C(=O)O,inactive; negative
9,Clc1ccc(Cl)c(Cl)c1Cl,inactive; negative
10,COC(=O)C1=C(C)NC(C)=C(C(=O)OC)C1c1ccccc1[N+](=O)[O-],inactive; negative
11,Oc1cc2c(cc1O)[C@@H]1c3ccc(O)c(O)c3OC[C@]1(O)C2,inactive; negative
12,CCCCOC(=O)c1ccccc1C(=O)OCCCC,inactive; negative
13,O=P(OC(CCl)CCl)(OC(CCl)CCl)OC(CCl)CCl,active; positive
14,CC(CC(=O)O)C(=O)O (configuration not stated),inactive; negative
15,O=C(O)C1=NN(c2ccc(S(=O)(=O)O)cc2)C(=O)C1N=Nc1ccc(S(=O)(=O)[O-])cc1.O=C(O)C1=NN(c2ccc(S(=O)(=O)O)cc2)C(=O)C1N=Nc1ccc(S(=O)(=O)[O-])cc1.O=C(O)C1=NN(c2ccc(S(=O)(=O)O)cc2)C(=O)C1N=Nc1ccc(S(=O)(=O)[O-])cc1.[Al+3] (configuration not stated),inactive; negative
16,Oc1cc(Cl)ccc1Cl,inactive; negative
17,C(CCOCC1CO1)COCC1CO1 (configuration not stated),active; positive
18,CC1(C)[C@@H]2CC[C@@]1(C)C(=O)C2,inactive; negative
19,Cc1ccc(O)c(N)c1,active; positive
20,CCC=O,inactive; negative
21,ClC1=C(Cl)C2(Cl)C3C(Cl)C(Cl)CC3C1(Cl)C2(Cl)Cl (configuration not stated),inactive; negative
22,Nc1ccccc1[N+](=O)[O-],inactive; negative
23,CCCCCCCC(=O)Cl,active; positive
24,CCN(CC)c1ccc(N=O)c(O)c1,inactive; negative

row,SMILES,outcome
1,Cc1cc(C)c(C)c(C)c1,inactive; negative
2,CCCCNC(=O)n1c(NC(=O)OC)nc2ccccc21,inactive; negative
3,Clc1cccc(Cl)c1Cl,inactive; negative
4,CNC(=O)ON=CC(C)(C)SC,inactive; negative
5,c1ccc2occc2c1,inactive; negative
6,Cc1cc([N+](=O)[O-])ccc1N,active; positive
7,CC(=O)OC1CC(C)OC(C)O1 (configuration not stated),active; positive
8,CC(CCl)OC(C)CCl (configuration not stated),active; positive
9,CCCCC(CC)COP(=O)(OCC(CC)CCCC)OCC(CC)CCCC (configuration not stated),inactive; negative
10,CCOC(=O)C1OC1c1ccccc1 (configuration not stated),inactive; negative
11,COP(=O)(OC)O/C(=C\Cl)c1cc(Cl)c(Cl)cc1Cl,inactive; negative
12,Nc1ccccn1,inactive; negative
13,CC(=O)OCC(COC(C)=O)OC(C)=O,inactive; negative
14,Clc1cc(Cl)c(Cl)cc1Cl,inactive; negative
15,C=CC(=O)OCC(CO)(COCC(COC(=O)C=C)(COC(=O)C=C)COC(=O)C=C)COC(=O)C=C,inactive; negative
16,O=C(O)c1cc(O)c2c(c1)[C@H]([C@H]1c3cc(C(=O)O)cc(O)c3C(=O)c3c(O[C@@H]4O[C@H](CO)[C@@H](O)[C@H](O)[C@H]4O)cccc31)c1cccc(O[C@@H]3O[C@H](CO)[C@@H](O)[C@H](O)[C@H]3O)c1C2=O,inactive; negative
17,CCCCCC(=O)OCC,inactive; negative
18,CCCCOC(=O)c1ccccc1C(=O)OCc1ccccc1,inactive; negative
19,CCC[N+](=O)[O-],inactive; negative
20,COc1cc(-c2ccc(N)c(OC)c2)ccc1N,active; positive
21,CC(=O)OO,inactive; negative
22,CN=[N+](C)[O-],active; weakly positive
23,CCOP(=S)(OCC)SCSC(C)(C)C,inactive; negative
24,[N-]=[N+]=[N-],active; positive

row,SMILES,outcome
1,O=C1[O][Bi][O]c2ccccc21,inactive; negative
2,CCCCCN,inactive; negative
3,C=CCc1ccc(OC)c(OC)c1,inactive; negative
4,COc1cc(OC)c(OC)cc1C=O,inactive; negative
5,O=C(O)CCCc1ccc(N(CCCl)CCCl)cc1,active; positive
6,C,inactive; negative
7,CCCCCN(CCCCC)CCCCC,inactive; negative
8,Brc1cc(Br)c(Oc2cc(Br)c(Br)cc2Br)cc1Br,inactive; negative
9,CCCCOC(=O)c1ccc(O)cc1,inactive; negative
10,CC(=O)CC(C)(C)O,inactive; negative
11,CCOP(=S)(OCC)Oc1nc(Cl)c(Cl)cc1Cl,inactive; negative
12,S=C([S-])NCCNC(=S)[S-].[Zn+2],inactive; negative
13,Nc1cccc2c(N)cccc12,active; positive
14,Nc1c(N=Nc2ccc([N+](=O)[O-])cc2)c(S(=O)(=O)O)cc2cc(S(=O)(=O)O)c(N=Nc3ccccc3)c(O)c12,active; positive
15,C[C@@H]1Cc2c(Cl)cc(C(=O)N[C@@H](Cc3ccccc3)C(=O)O)c(O)c2C(=O)O1,inactive; negative
16,CC1(C)S[C@@H]2[C@H](NC(=O)COc3ccccc3)C(=O)N2[C@H]1C(=O)O,inactive; negative
17,CNc1ccc(O)cc1,active; positive
18,NC(=O)NNC(N)=O,inactive; negative
19,CCCCCC=CC=CC=O,inactive; negative
20,CCc1ccccc1N,inactive; negative
21,CCCCCCCC/C=C\CCCCCCCC(=O)OC,inactive; negative
